The values below come from patent publication US8143244B2, “Cyclopropyl fused indolobenzazepine HCV NS5B inhibitors” (Bristol-Myers Squibb Company, priority 2009, dated 2012).

Where two headings read alike, the source gives them in different places. Some results are limits rather than exact numbers.

The term EC50 denotes the concentration that produces a half-maximal response.

The test relates to HCV replicon. As to the kind of experiment: HCV replicon FRET / luciferase assay (NeoLuc). As to conditions: HCV replicon cells. The class given is cell-based, HCV genotype 1b. From the text: FRET Assay Preparation. To perform the HCV FRET screening assay, 96-well cell culture plates were used. The FRET peptide (Anaspec, Inc.) (Taliani et al., Anal. Biochem. 1996, 240, 60-67) contains a fluorescence donor, EDANS, near one end of the peptide and an acceptor, DABCYL, near the other end. The fluorescence of the peptide is quenched by […] resonance energy transfer (RET) between the donor and the acceptor, but as the NS3 protease cleaves the peptide the products are released from RET quenching and the fluorescence of the donor becomes apparent. The assay reagent was made as follows: 5× cell Luciferase cell culture lysis reagent from Promega (#E153A) diluted to 1× with dH2O, NaCl added to 150 mM final, the FRET peptide diluted to 20 μM final from a 2 mM stock.
To prepare plates, HCV replicon cells, with or without a Renilla luciferase reporter gene, were trypsinized and placed into each well of a 96-well plate with titrated test compounds added in columns 3 through 12; columns 1 and 2 contained a control compound (HCV protease inhibitor), and the bottom row contained cells without compound. The plates were then placed in a CO2 incubator at 37° C.
Assays. Subsequent to addition of the test compounds described above (FRET Assay Preparation), at various times the plate was removed and Alamar blue solution (Trek Diagnostics, #00-100) was added per well as a measure of cellular toxicity. After reading in a Cytoflour 4000 instrument (PE Biosystems), plates were rinsed with PBS and then used for FRET assay by the addition of 30 ul of the FRET peptide assay reagent described above (FRET Assay Preparation) per well. The plate was then placed into the Cytoflour 4000 instrument which had been set to 340 excite/490 emission, automatic mode for 20 cycles and the plate read in a kinetic mode. Typically, the signal to noise using an endpoint analysis after the reads was at least three-fold. Alternatively, after Alamar blue reading, plates were rinsed with PBS, 50 ul of DMEM (high glucose) without phenol red was added and plates were then used for luciferase assay using the Promega Dual-Glo Luciferase Assay System,
Compound analysis was deteiniined by quantification of the relative HCV replicon inhibition and the relative cytotoxicity values. To calculate cytoxicity values, the average Alamar Blue fluorescence signals from the control wells were set as 100% non-toxic. The individual signals in each of the compound test wells were then divided by the average control signal and multiplied by 100% to determine […]. To calculate the HCV replicon inhibition values, an average background value was obtained from the two wells containing the highest amount of HCV protease inhibitor at the end of the assay period. These numbers were similar to those obtained from naïve Huh-7 cells.
The background numbers were then subtracted from the average signal obtained from the control wells and this number was used as 100% activity. The individual signals in each of the compound test wells were then divided by the averaged control values after background subtraction and multiplied by 100% to determine percent activity. EC50 values for a protease inhibitor titration were calculated as the concentration which caused a 50% reduction in FRET or luciferase activity. The two numbers generated for the compound plate, percent cytoxicity and percent activity were used to determine compounds of interest for further analysis.
(Replicon systems follow genome replication, usually without infectious particles.)

[1] abbreviates: Hepatitis C virus, genotype 1b, read-out: NeoLuc EC50, Table 1, genotype 1b.
Setting [2] is: Hepatitis C virus, Table 2, read-out: NeoLuc EC50.

With `COc1ccc2c(c1)[C@@H]1C[C@]1(C(=O)N1CC34CNCC3(CN(C)C4)C1)Cn1c-2c(C2CCCCC2)c2ccc(C(=O)NS(=O)(=O)C(C)C)cc21` (stereo partly shown), under setting [1], the EC50 lay within 1.9 to 500 nM.
For the molecule `COc1ccc2c(c1)C1CC1(C(=O)N1CC34CNCC3(CN(C)C4)C1)Cn1c-2c(C2CCCCC2)c2ccc(C(=O)NS(=O)(=O)N(C)C)cc21` (stereo not shown), the 50% effective concentration (EC50) under setting [1] fell in the range of 1.9 to 500 nM.
`COc1ccc2c(c1)C=C(C(=O)N1CC34CNCC3(COC4)C1)Cn1c-2c(C2CCCCC2)c2ccc(C(=O)NS(=O)(=O)N(C)C)cc21` (stereo not shown): the half-maximal effective concentration (EC50) under setting [1] was in the range of 1.9 to 500 nM.
For `COc1ccc2c(c1)C=C(C(=O)N1CC34CNCC3(COC4)C1)Cn1c-2c(C2CCCCC2)c2ccc(C(=O)NS(=O)(=O)C3CC3)cc21` (stereo not shown), the EC50 under setting [1] was 1.9 to 500 nM.
As to `COc1ccc2c(c1)[C@@H]1C[C@]1(C(=O)N1CC34COCC3(CN(C)C4)C1)Cn1c-2c(C2CCCCC2)c2ccc(C(=O)NS(=O)(=O)C(C)C)cc21` (stereo partly shown), the concentration for a half-maximal effect (EC50) under setting [1] is 1.9 to 500 nM.
In the case of `COc1ccc2c(c1)[C@@H]1C[C@]1(C(=O)N1CC34COCC3(C1)CN(C1CC1)C4)Cn1c-2c(C2CCCCC2)c2ccc(C(=O)NS(=O)(=O)C(C)C)cc21` (stereo partly shown), the EC50 under setting [1] was in the range of 1.9 to 500 nM.
The same measure, in the same setting: then `COc1ccc2c(c1)CC(C(=O)N1CC34CNCC3(COC4)C1)Cn1c-2c(C2CCCCC2)c2ccc(C(=O)NS(=O)(=O)C3CC3)cc21` (stereo not shown), with over 1000 nM.
For `COc1ccc2c(c1)C1CC1(C(=O)N1CC34COCC3(CN(C)C4)C1)Cn1c-2c(C2CCCCC2)c2ccc(C(=O)NS(=O)(=O)N(C)C)cc21` (stereo not shown) [drawing 106], the 50% effective concentration (EC50) under setting [2] was 20 nM.
For the molecule `COc1ccc2c(c1)C1CC1(C(=O)N1CC34CNCC3(COC4)C1)Cn1c-2c(C2CCCCC2)c2ccc(C(=O)NS(=O)(=O)N(C)C)cc21` (stereo not shown), the EC50 under setting [1] is 1.9 to 500 nM.
On the same count and under the same terms, then `COc1ccc2c(c1)[C@@H]1C[C@]1(C(=O)N1CC34CN(C)CC3(CN(C)C4)C1)Cn1c-2c(C2CCCCC2)c2ccc(C(=O)NS(=O)(=O)C(C)C)cc21` (stereo partly shown), with 1.9 to 500 nM; and `COc1ccc2c(c1)[C@@H]1C[C@]1(C(=O)N1CC34COCC3(C1)N(C(C)=O)C4)Cn1c-2c(C2CCCCC2)c2ccc(C(=O)NS(=O)(=O)N(C)C)cc21` (stereo partly shown), with 1.9 to 500 nM.
As to `COc1ccc2c(c1)C=C(C(=O)N1CC34CN(C)CC3(CN(C)C4)C1)Cn1c-2c(C2CCCCC2)c2ccc(C(=O)NS(=O)(=O)N(C)C)cc21` (stereo not shown), the EC50 under setting [1] fell in the range of 1.9 to 500 nM.
For `COc1ccc2c(c1)C1CC1(C(=O)N1CC34CN(C)CC3(CN(C)C4)C1)Cn1c-2c(C2CCCCC2)c2ccc(C(=O)NS(=O)(=O)N(C)C)cc21` (stereo not shown), the EC50 under setting [1] lay within 1.9 to 500 nM.
Regarding `COc1ccc2c(c1)CC(C(=O)N1CC34CN(C)CC3(CN(C)C4)C1)Cn1c-2c(C2CCCCC2)c2ccc(C(=O)NS(=O)(=O)N(C)C)cc21` (stereo not shown), under setting [1], the EC50 was in the range of 1.9 to 500 nM.
Turning to `C=C(C)S(=O)(=O)NC(=O)c1ccc2c(C3CCCCC3)c3n(c2c1)C[C@@]1(C(=O)N2CC45COCC4(CN(C)C5)C2)C[C@H]1c1cc(OC)ccc1-3` (stereo partly shown), under setting [1], the concentration giving a half-maximal response (EC50) is 1.9 to 500 nM.
For the molecule `COc1ccc2c(c1)[C@@H]1C[C@]1(C(=O)N1CC34COCC3(C1)N(C(C)=O)C4)Cn1c-2c(C2CCCCC2)c2ccc(C(=O)NS(=O)(=O)C(C)C)cc21` (stereo partly shown) [drawing 109], where the note is “Table 2, read-out: NeoLuc EC50”, the concentration giving a half-maximal response (EC50) amounted to 130 nM.
For `COc1ccc2c(c1)CC(C(=O)N1CC34COCC3(CN(C)C4)C1)Cn1c-2c(C2CCCCC2)c2ccc(C(=O)NS(=O)(=O)C3CC3)cc21` (stereo not shown), the EC50 under setting [1] is 1.9 to 500 nM.
`COc1ccc2c(c1)C=C(C(=O)N1CC34COCC3(C1)N(C(C)=O)C4)Cn1c-2c(C2CCCCC2)c2ccc(C(=O)NS(=O)(=O)N(C)C)cc21` (stereo not shown): the EC50 under setting [1] was 1.9 to 500 nM.
The same measure, in the same setting: for `COc1ccc2c(c1)C1CC1(C(=O)N1CC34COCC3(CN(C)C4)C1)Cn1c-2c(C2CCCCC2)c2ccc(C(=O)NS(=O)(=O)N(C)C)cc21` (stereo not shown) [drawing 61] the value was 1.9 to 500 nM.
As for `COc1ccc2c(c1)C=C(C(=O)N1CC34COCC3(CN(C)C4)C1)Cn1c-2c(C2CCCCC2)c2ccc(C(=O)NS(=O)(=O)C3CC3)cc21` (stereo not shown), the EC50 under setting [1] was 1.9 to 500 nM.
Turning to `COc1ccc2c(c1)C1CC1(C(=O)N1CC34COCC3(CN(C(C)=O)C4)C1)Cn1c-2c(C2CCCCC2)c2ccc(C(=O)NS(=O)(=O)CC(C)C)cc21` (stereo not shown), the half-maximal effective concentration (EC50) under setting [1] was 1.9 to 500 nM.
For `COc1ccc2c(c1)C1CC1(C(=O)N1CC34CNCC3(CN(C)C4)C1)Cn1c-2c(C2CCCCC2)c2ccc(C(=O)NS(=O)(=O)C3CC3)cc21` (stereo not shown), under setting [2], the concentration giving a half-maximal response (EC50) was over 1000 nM.
With `COc1ccc2c(c1)[C@@H]1C[C@]1(C(=O)N1CC34COCC3(C1)N(C(C)=O)C4)Cn1c-2c(C2CCCCC2)c2ccc(C(=O)NS(=O)(=O)C(C)C)cc21` (stereo partly shown) [drawing 110], the EC50 (Table 2, read-out: NeoLuc EC50) stood at 10 nM.
For the molecule `COc1ccc2c(c1)CC(C(=O)N1CC34CNCC3(CN(C)C4)C1)Cn1c-2c(C2CCCCC2)c2ccc(C(=O)NS(=O)(=O)C3CC3)cc21` (stereo not shown), under setting [1], the EC50 was over 1000 nM.
The same measure, in the same setting: for `COc1ccc2c(c1)[C@@H]1C[C@]1(C(=O)N1CC34COCC3(C1)N(C(C)=O)C4)Cn1c-2c(C2CCCCC2)c2ccc(C(=O)NS(=O)(=O)C(C)C)cc21` (stereo partly shown) [drawing 73] the value was 1.9 to 500 nM; for `COc1ccc2c(c1)[C@@H]1C[C@]1(C(=O)N1CC34CNCC3(COC4)C1)Cn1c-2c(C2CCCCC2)c2ccc(C(=O)NS(=O)(=O)C(C)C)cc21` (stereo partly shown), 1.9 to 500 nM; for `COc1ccc2c(c1)C=C(C(=O)N1CC34COCC3(CN(C)C4)C1)Cn1c-2c(C2CCCCC2)c2ccc(C(=O)NS(=O)(=O)N(C)C)cc21` (stereo not shown), 1.9 to 500 nM.
For `CCN1CC23COCC2(C1)CN(C(=O)[C@]12C[C@H]1c1cc(OC)ccc1-c1c(C4CCCCC4)c4ccc(C(=O)NS(=O)(=O)C(C)C)cc4n1C2)C3` (stereo partly shown), under setting [1], the EC50 was 1.9 to 500 nM.
